In ChEMBL document CHEMBL1130556, “Synthesis and activity of brefeldin a analogs as inducers of cancer cell differentiation and apoptosis” (Bioorg Med Chem Lett, 1997):

Legend:
Assay type in all cases: functional, cell-based
Details in all cases: Homo sapiens
HCT-116 [1] = assay: Effect on apoptotic DNA fragmentation to differentitiate HCT 116 cells, at a concentration of 6.4 uM, 2.0 ug/ml was determined; - = Not potent
HCT-116 [2] = assay: Effect on apoptotic DNA fragmentation to differentitiate HCT 116 cells, at a concentration of 5.2 uM, 2.0 ug/ml was determined; - = Not potent
HCT-116 [3] = assay: Effect on apoptotic DNA fragmentation to differentitiate HCT 116 cells, at a concentration of 3.2 uM, 1.0 ug/ml was determined; - = Not potent
HCT-116 [4] = assay: Effect on apoptotic DNA fragmentation to differentitiate HCT 116 cells, at a concentration of 0.11 uM, 0.03 ug/ml was determined; + = Potent
HCT-116 [5] = assay: Effect on apoptotic DNA fragmentation to differentitiate HCT 116 cells, at a concentration of 0.85 uM, 0.25 ug/ml was determined; - = Not potent
HCT-116 [6] = assay: Effect on apoptotic DNA fragmentation to differentitiate HCT 116 cells, at a concentration of 3.4 uM, 1.0 ug/ml was determined; - = Not potent
HCT-116 [7] = assay: Effect on apoptotic DNA fragmentation to differentitiate HCT 116 cells, at a concentration of 0.27 uM, 0.1 ug/ml was determined; + = Potent
HCT-116 [8] = assay: Effect on apoptotic DNA fragmentation to differentitiate HCT 116 cells, at a concentration of 3.5 uM, 1.0 ug/ml was determined; - = Not potent
HCT-116 [9] = assay: Effect on apoptotic DNA fragmentation to differentitiate HCT 116 cells, at a concentration of 0.16 uM, […] was determined; + = Potent
HCT-116 [10] = assay: Effect on apoptotic DNA fragmentation to differentitiate HCT 116 cells, at a concentration of 3.6 uM, 1.0 ug/ml was determined; - = Non potent
HCT-116 [11] = assay: Effect on apoptotic DNA fragmentation to differentitiate HCT 116 cells, at a concentration of 1.6 uM, 0.5 ug/ml was determined; + = Potent
HCT-116 [12] = assay: Effect on apoptotic DNA fragmentation to differentitiate HCT 116 cells, at a concentration of 4.1 uM, 1.2 ug/ml was determined; + = Potent

With `COC(=O)/C=C/[C@@H](O)[C@@H]1C[C@@H](O)C[C@H]1/C=C\CCC[C@@H](C)O` the DNA fragmentation (HCT-116 [1]) was “Not potent”.
In the case of `C[C@@H](O)CCC/C=C\[C@@H]1C[C@H](O)C[C@H]1[C@H](O)/C=C/C(=O)OCc1ccccc1`, the DNA fragmentation (HCT-116 [2]) is reported as “Not potent”.
`CO[C@@H]1C[C@@H]2[C@H](/C=C\CCC[C@H](C)OC(=O)/C=C/[C@H]2OC)C1` was tested, and the DNA fragmentation (HCT-116 [3]) was “Not potent”.
With `C[C@H]1CCC/C=C\[C@@H]2C[C@H](O)C[C@H]2[C@H](O)/C=C/C(=O)O1` the DNA fragmentation (HCT-116 [4]) was “Potent”.
In the case of `CO[C@@H]1/C=C/C(=O)O[C@@H](C)CCC/C=C\[C@@H]2C[C@H](O)C[C@H]21`, the DNA fragmentation (HCT-116 [5]) is reported as “Not potent”.
With `C[C@@H](O)CCC/C=C\[C@@H]1C[C@H](O)C[C@H]1[C@H](O)/C=C/C(=O)O` the DNA fragmentation (HCT-116 [6]) was “Not potent”.
With `CC(=O)O[C@@H]1C[C@@H]2[C@H](/C=C\CCC[C@H](C)OC(=O)/C=C/[C@H]2OC(C)=O)C1` the DNA fragmentation (HCT-116 [7]) was “Potent”.
For `C[C@H]1CCCCC[C@@H]2C[C@H](O)C[C@H]2[C@H](O)CCC(=O)O1`, the DNA fragmentation (HCT-116 [8]) was “Not potent”.
`CC(=O)O[C@@H]1C[C@H]2[C@H](O)/C=C/C(=O)O[C@@H](C)CCC/C=C\[C@@H]2C1` was tested, and the DNA fragmentation (HCT-116 [9]) was “Potent”.
`C[C@H]1CCC/C=C\[C@@H]2CC(=O)C[C@H]2C(=O)CCC(=O)O1` was tested, and the DNA fragmentation (HCT-116 [10]) was “Non potent”.
With `CC(=O)O[C@@H]1/C=C/C(=O)O[C@@H](C)CCC/C=C\[C@@H]2C[C@H](O)C[C@H]21` the DNA fragmentation (HCT-116 [11]) was “Potent”.
In the case of `C[C@H]1CCC/C=C\[C@@H]2CC(=O)C[C@H]2[C@H](O)/C=C/C(=O)O1`, the DNA fragmentation (HCT-116 [10]) is reported as “Non potent”.
With `C[C@H]1CCC[C@@H]2O[C@@H]2[C@@H]2C[C@H](O)C[C@H]2[C@H](O)/C=C/C(=O)O1` the DNA fragmentation (HCT-116 [12]) was “Potent”.
